Experimental data from patent US9328130B2, “Method of treating organism by biologically active compounds specifically delivered into mitochondria, pharmaceutical composition required for the use of the method and a compound applicable for this purpose” (MITOTECH S.A., priority 2005, dated 2016).

Legend:
[1] = system: Yarrowia lipolytica; assay: Protection of yeast cells from death caused by hydrogen peroxide; type: cell-based; conditions: FIG. 14; α-tocopherol 25 μM
[2] = system: OXYS rats; assay: Cataract and macular dystrophy in senescence-accelerated OXYS rats; type: in vivo, rat; conditions: for 2nd stage of cataract / 2nd stage of macular degeneration / changes in the macular area of the retina: OXYS rats age 3 months after oral course; for eyes with lens changes: OXYS rats age 3 months after oral course from 1.5 to 3 months
Experimental: The animals were housed in cages (45*35*35 cm) and kept under standard laboratory conditions (at 22±1° C., 60% relative humidity, and natural light), provided with a standard rodent diet (PK-120-1, Ltd. ‘Laboratorsnab’, Russia), and given water ad libitum. At the age of 1.5 months after preliminary pupil dilation with 1% tropicamide ophthalmic the rats were conducted through ophthalmoscopic examination using direct ophthalmoscop “Betta”, Germany. […] We use Vitamin E for a comparison with test antioxidants. Animals received the compounds on a small piece of dried bread before a regular meal, and the control group of animals received the same piece of bread without any compound. After completing the course of antioxidants the animals were retested with ophthalmoscope. To avoid human factor in the evaluation of compound effects the researcher who conducted the ophthalmoscopic examination was not told which of the animals received antioxidants. The lens state was evaluated according to the classification system accepted in clinical practice with grades ranging from 0 to 3: score 0—the lens is clear; score 1—spotted weak cloudiness; score 2—multiple spots of cloudiness and score 3—intense cloudiness of the lens core and nucleus.

[3] = system: cells in culture; conditions: cited from earlier work
[4] = Accumulation of MitoQ in tissues when fed to animals (prior art); type: in vivo; conditions: feeding to animals
Experimental: It should also be noted that despite some promising observations concerning the MitoQ action, there are several results and calculations that cast doubt on the possibility of practical application of this compound. For example, it was shown in experiments with cell culture that MitoQ provides its antioxidant and anti-apoptotic action at concentration about 1 μM in the medium. It means that MitoQ concentrations inside the mitochondria should be 1 mM provided that membrane potential is about 180 mV. On the other hand, it was shown by Smith R A, Porteous C M, Gane A M, Murphy M P, Proc Natl Acad Sci USA, 2003, 100(9):5407-12 when feeding MitoQ to animals, the accumulation of MitoQ in the most oxidative stress sensitive tissues (heart and brain) amounts up to 100 pmoles/gram, which corresponds to the MitoQ concentration inside heart mitochondria equal to 100 nM. This is more than 1000 times lower than the concentration shown to be efficient in the cell culture experiments. Formally, the concentration can be raised by the increase of amounts of MitoQ fed to animals, but this is, in fact, not possible due to the toxicity of the compound.

[5] = system: cell culture; conditions: cited from earlier work
[6] = feeding to animals; cited from earlier work
[7] = system: Hela cells
[8] = system: Hela cells; assay: Transmission of apoptotic signal between inducer and recipient slides; type: cell-based, human; conditions: 2500 E/ml added to medium for joint incubation
Experimental: HeLa cells were used in these experiments. Cells grown on a glass slide were treated with different apoptosis-inducing agents (tumor necrosis factor (TNF), staurosporine, H2O2) for 3 h. Then the glass slide with cells (inducer) was washed to remove these reagents and placed into Petri plate to come into contact with glass slide (recipient) with cells grown in the absence of any apoptosis-inducing agent. After 16-18 h of subsequent growth and staining the cells with Hoechst 33342 as described above, apoptosis at both glass slides was analyzed.
Thus the main mediator of apoptosis signal was H2O2.

Cc1c(C)c2c(c(C)c1O)CC[C@@](C)(CCC[C@H](C)CCC[C@H](C)CCCC(C)C)O2 [tocopherol, α-tocopherol, reference compound]
effect on survival compared among protectants [1]: very similar

[Br-].[K+] [KBr]
2nd stage of cataract [2]: 57% | 2nd stage of macular degeneration [2]: 13% | changes in the macular area of the retina [2]: 87% | eyes with lens changes [2]: 93%

Cc1c(C)c2c(c(C)c1O)CCC(C)(CC[P+](c1ccccc1)(c1ccccc1)c1ccccc1)O2 (stereo not drawn) [MitoVitE]
concentration with no toxic effect on cells in culture [3]: 10 µM | prevention of apoptosis in cultured cells ([3]; effect retained in the presence of uncoupler FCCP): able to prevent apoptosis in cultured cells

CC(=O)Oc1c(C)c(C)c2c(c1C)CCC(C)(CCC[C@H](C)CCC[C@H](C)CCCC(C)C)O2 (stereo partly drawn) [vitamin E, alfa-tocopherol acetate]
2nd stage of cataract [2]: 12% | 2nd stage of macular degeneration [2]: 8% | changes in the macular area of the retina [2]: 54% | eyes with lens changes [2]: 58%

C[C@@H]1C[C@@H]([C@H](O)CC2CC(=O)NC(=O)C2)C(=O)[C@@H](C)C1 [cycloheximide D, reference compound]
effect on survival compared among protectants [1]: very similar

COC1=C(OC)C(=O)C(CCCCCCCCCC[P+](c2ccccc2)(c2ccccc2)c2ccccc2)=C(C)C1=O [MitoQ]
corresponding concentration inside heart mitochondria [4]: 100 nM | concentration in the medium giving antioxidant and anti-apoptotic action [5]: about 1 μM | accumulation in heart and brain [6]: up to 100 pmoles/gram | LD50 in the presence of hydrogen peroxide ([7]; 100 μM hydrogen peroxide): 4 µM | LD50 (concentrations at which 50% cells die) ([7]; 2 h of incubation, no hydrogen peroxide): 7 µM

B1: catalase: catalase (2500 E/ml) added into the medium for joint incubation (protein, UniProt P00432 2-527, looked up)
Catalase: ADNRDPASDQMKHWKEQRAAQKPDVLTTGGGNPVGDKLNSLTVGPRGPLLVQDVVFTDEMAHFDRERIPERVVHAKGAGAFGYFEVTHDITRYSKAKVFEHIGKRTPIAVRFSTVAGESGSADTVRDPRGFAVKFYTEDGNWDLVGNNTPIFFIRDALLFPSFIHSQKRNPQTHLKDPDMVWDFWSLRPESLHQVSFLFSDRGIPDGHRHMNGYGSHTFKLVNANGEAVYCKFHYKTDQGIKNLSVEDAARLAHEDPDYGLRDLFNAIATGNYPSWTLYIQVMTFSEAEIFPFNPFDLTKVWPHGDYPLIPVGKLVLNRNPVNYFAEVEQLAFDPSNMPPGIEPSPDKMLQGRLFAYPDTHRHRLGPNYLQIPVNCPYRARVANYQRDGPMCMMDNQGGAPNYYPNSFSAPEHQPSALEHRTHFSGDVQRFNSANDDNVTQVRTFYLKVLNEEQRKRLCENIAGHLKDAQLFIQKKAVKNFSDVHPEYGSRIQALLDKYNEEKPKNAVHTYVQHGSHLSAREKANL
apoptosis of recipient cells [8]: prevented apoptosis of recipient cells
